Data taken from patent publication US20240425517A1, “NOVEL COMPOUND FOR DEGRADATION OF TARGET PROTEIN OR POLYPEPTIDE BY POLYUBIQUITINATION” (PRAZER THERAPEUTICS INC., priority 2021, published 2024).
Counter-ions that a name gives are not always drawn.

Biological target: T1, p38 proteins (Mus musculus, UniProt P47811)
T1 construct: endogenous in cells; host or cells: RAW 264.7
Experiment: Degradation of p38 in Raw 264.7 macrophages (Western blot densitometry)
Format: cell-based
Conditions: 10 μM, 24 hours
Protocol: To confirm that the compounds (p38 degraders) of Preparation Examples I″′ to III″′ reduce the amount of phospho-p38 (p-p38) proteins, experiments were performed using Raw 264.7 macrophages. Since p38 MAPK alpha is activated through the process of phosphorylation of threonine 180 (Thr180) and tyrosine 182 (Tyr182) residues by MKK3, MKK6, and the like, which are upstream regulators, phosphorylation of these residues was generally detected using an antibody (3D7 rabbit monoclonal antibody from Cell Signaling, Inc.) that specifically recognizes phospho-p38 (p-p38) MAPK in which p38 MAPK alpha was activated.
Specifically, the RAW 264.7 cells were cultured in DMEM medium containing 10% fetal bovine serum (FBS), 1% penicillin, and streptomycin (100 U/mL), transferred to a 6-well plate, and after 24 hours, the p38 degraders were diluted in the DMEM culture medium and the cells were treated with 10 μM concentration thereof. After treatment, the cells were incubated in a CO2 incubator for 24 hours. Through protein immunoblotting (Western Blot), the degrading capacity of each compound against p38 and p-p38 proteins in cells was confirmed. After cell culture was completed according to the experimental conditions, the cells were collected and centrifuged at 1,800 rpm for 3 minutes. The cells in the precipitate were lysed with RIPA (25 mM Tris-HCl pH 7.6, 150 mM NaCl, 1% NP-40, 1% sodium deoxycholate, 0.1% SDS, 1× Protease Inhibitor Cocktail), 5× sample buffer was added, and then heated at 100° C. for 15 minutes. The prepared sample was electrophoresed with sodium dodecyl sulfate poly acrylamide gel electrophoresis (SDS-PAGE), and then the proteins in the gel were transferred to a PVDF membrane using Trans-Blot Turbo. The membrane was treated with a 5% bovine serum albumin (BSA) solution and blocked at room temperature for 2 hours, and then p-p38, p38, and R-actin antibodies were diluted in the 5% BSA solution to react with the membrane at 4° C. overnight. After washed with PBST (phosphate-based saline containing 0.5% Tween20) 5 times, horse radish peroxidase (HRP)-conjugated secondary antibodies were diluted in PBST to react at room temperature for 2 hours, and then washed again with a PBST solution 5 times. After enzyme-substrate reaction was carried out using a HRP substrate, a signal was measured with chemi-doc equipment, and the densitometry of bands corresponding to the p-p38 and p38 proteins detected in the Preparation Example Compounds was quantitatively analyzed. The case when the degrading capacity of each p38 degrader was reduced by less than 40% is indicated as +, the case when the degrading capacity was reduced by 40% to 70% (exclusive of 70) is indicated as ++, the case when the degrading capacity was reduced by 70% or more is indicated as +++ in Tables 24 to 26 below. As shown in the following Tables, it was confirmed that the compounds of Preparation Examples I″′ to III″′ according to the present invention have excellent degrading capacity.

T1 sequence (P47811 whole entry): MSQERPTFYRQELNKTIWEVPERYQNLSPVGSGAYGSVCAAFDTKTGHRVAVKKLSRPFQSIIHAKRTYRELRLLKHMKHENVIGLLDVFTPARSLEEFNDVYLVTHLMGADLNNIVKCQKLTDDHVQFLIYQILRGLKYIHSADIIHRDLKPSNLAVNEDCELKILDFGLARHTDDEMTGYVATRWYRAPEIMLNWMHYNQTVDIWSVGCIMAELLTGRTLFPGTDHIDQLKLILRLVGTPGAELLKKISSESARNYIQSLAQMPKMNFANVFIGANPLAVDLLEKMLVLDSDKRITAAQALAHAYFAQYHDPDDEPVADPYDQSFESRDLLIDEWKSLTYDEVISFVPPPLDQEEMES

SMILES | p38 degrading capacity (%)
Cc1ccc(C(=O)NC2CC2)cc1-c1ccc(C(=O)c2ccc(OCCOC(=O)Nc3ccc(C#CCN)cc3)cc2)cc1.Cl [1-1″′, 2-(4-(5′-(cyclopropylcarbamoyl)-2′-methyl-[1,1′-biphenyl]-4-carbonyl)phenoxy)ethyl (4-(3-aminoprop-1-yn-1-yl)phenyl)carbamate hydrochloride] | +++ (the degrading capacity was reduced by 70% or more)

Biological target: T2, Aurora A proteins (Homo sapiens, UniProt O14965)
T2 construct: endogenous in cells; host or cells: MM.1S
T2 sequence (O14965 1-403): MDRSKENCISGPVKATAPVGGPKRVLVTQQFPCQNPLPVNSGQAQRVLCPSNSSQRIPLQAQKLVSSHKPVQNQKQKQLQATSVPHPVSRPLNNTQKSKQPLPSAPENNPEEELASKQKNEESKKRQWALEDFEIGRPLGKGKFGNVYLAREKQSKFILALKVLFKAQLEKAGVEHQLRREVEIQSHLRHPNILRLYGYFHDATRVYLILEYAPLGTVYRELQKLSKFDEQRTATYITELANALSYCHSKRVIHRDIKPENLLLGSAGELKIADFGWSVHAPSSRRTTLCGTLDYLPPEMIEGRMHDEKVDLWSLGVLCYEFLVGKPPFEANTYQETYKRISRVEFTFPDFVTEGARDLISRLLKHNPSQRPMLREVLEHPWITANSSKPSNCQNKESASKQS
Experiment: Degradation of Aurora A protein in MM.1S cell lines (Western blot densitometry)
Format: cell-based
Conditions: MM1.S, 24 h, read-out: Aurora A degrading capacity (%)
Protocol: Specifically, the MM.1S cells were cultured in RPMI-1640 medium containing 10% fetal bovine serum (FBS), 1% penicillin, and streptomycin (100 U/mL), transferred to a 6-well plate, and after 24 hours, the Aurora A degraders were diluted in the RPMI culture medium and cells were treated with 5 μM concentration thereof. After treatment, the cells were incubated in a CO2 incubator for 24 hours. […] After cell culture was completed according to the experimental conditions, the cells were collected and centrifuged at 1,800 rpm for 3 minutes. The cells in the precipitate were lysed with RIPA (25 mM Tris-HCl pH 7.6, 150 mM NaCl, 1% NP-40, 1% sodium deoxycholate, 0.1% SDS, 1× Protease Inhibitor Cocktail), 5× sample buffer was added, and then heated at 100° C. for 15 minutes. The prepared sample was electrophoresed with sodium dodecyl sulfate poly acrylamide gel electrophoresis (SDS-PAGE), and then the proteins in the gel were transferred to a PVDF membrane using Trans-Blot Turbo. The membrane was treated with a 5% bovine serum albumin (BSA) solution and blocked at room temperature for 2 hours, and then Aurora A and R-actin antibodies were diluted in the 5% BSA solution to react with the membrane at 4° C. overnight. After washed with PBST (0.5% Tween20) 5 times, horse radish peroxidase (HRP)-conjugated secondary antibodies were diluted in PBST to react at room temperature for 2 hours, and then washed again with a PBST solution 5 times. After enzyme-substrate reaction was carried out using a HRP substrate, a signal was measured with chemi-doc equipment, and the densitometry of a band corresponding to the Aurora A protein detected in the Preparation Example Compounds was quantitatively analyzed. The case when the degrading capacity of each Aurora A degrader was reduced by less than 40% is indicated as +, the case when the degrading capacity was reduced by 40% to 70% (exclusive of 70) is indicated as ++, the case when the degrading capacity was reduced by 70% or more is indicated as +++ in Tables 20 to 23 below.

SMILES | Aurora A degradation (%) at 5 µM [%]
COC(=O)c1ccc(C#CCNC(=O)C2CCN(C(=O)c3ccc(Nc4ncc5c(n4)-c4ccc(Cl)cc4C(c4c(F)cccc4OC)=NC5)cc3OC)CC2)cc1C#CCN [5-28″, methyl 2-(3-aminoprop-1-yn-1-yl)-4-(3-(1-(4-((9-chloro-7-(2-fluoro-6-methoxyphenyl)-5H-benzo[c]pyrimido[4,5-e]azepin-2-yl)amino)-2-methoxybenzoyl)piperidine-4-carboxamido)prop-1-yn-1-yl)benzoate trifluoroacetic acid] | > 70
COC(=O)c1ccc(N2CCN(CC3CCN(C(=O)c4ccc(Nc5ncc6c(n5)-c5ccc(Cl)cc5C(c5c(F)cccc5OC)=NC6)cc4OC)CC3)CC2)cc1C#CCN [5-29″, methyl 2-(3-aminoprop-1-yn-1-yl)-4-(4-((1-(4-((9-chloro-7-(2-fluoro-6-methoxyphenyl)-5H-benzo[c]pyrimido[4,5-e]azepin-2-yl)amino)-2-methoxybenzoyl)piperidin-4-yl)methyl)piperazin-1-yl)benzoate trifluoroacetic acid] | > 70
COC(=O)c1ccc(N2CCN(C(=O)CCNC(=O)c3ccc(Nc4ncc5c(n4)-c4ccc(Cl)cc4C(c4c(F)cccc4OC)=NC5)cc3OC)CC2)cc1C#CCN [5-32″, methyl 2-(3-aminoprop-1-yn-1-yl)-4-(4-(3-(4-((9-chloro-7-(2-fluoro-6-methoxyphenyl)-5H-benzo[c]pyrimido[4,5-e]azepin-2-yl)amino)-2-methoxybenzamido)propanoyl)piperazin-1-yl)benzoate trifluoroacetic acid] | 40 to 70
COC(=O)c1ccc(NC2CCC(NC(=O)c3ccc(Nc4ncc5c(n4)-c4ccc(Cl)cc4C(c4c(F)cccc4OC)=NC5)cc3OC)CC2)cc1C#CCN (stereo not shown) [5-35″, methyl 2-(3-aminoprop-1-yn-1-yl)-4-((4-(4-((9-chloro-7-(2-fluoro-6-methoxyphenyl)-5H-benzo[c]pyrimido[4,5-e]azepin-2-yl)amino)-2-methoxybenzamido)cyclohexyl)amino)benzoate trifluoroacetic acid] | > 70
COC(=O)c1ccc(N2CC3(CN(C(=O)c4ccc(Nc5ncc6c(n5)-c5ccc(Cl)cc5C(c5c(F)cccc5OC)=NC6)cc4OC)C3)C2)cc1C#CCN [5-40″, methyl 2-(3-aminoprop-1-yn-1-yl)-4-(6-(4-((9-chloro-7-(2-fluoro-6-methoxyphenyl)-5H-benzo[c]pyrimido[4,5-e]azepin-2-yl)amino)-2-methoxybenzoyl)-2,6-diazaspiro[3.3]heptan-2-yl)benzoate trifluoroacetic acid] | > 70
COc1cc(Nc2ncc3c(n2)-c2ccc(Cl)cc2C(c2c(F)cccc2OC)=NC3)ccc1C(=O)NCCCC(=O)Nc1ccc(-c2cnc(C(F)(F)F)nc2)c(C#CCN)c1 [5-81″, N-(4-((3-(3-aminoprop-1-yn-1-yl)-4-(2-(trifluoromethyl)pyrimidin-5-yl)phenyl)amino)-4-oxobutyl)-4-((9-chloro-7-(2-fluoro-6-methoxyphenyl)-5H-benzo[c]pyrimido[4,5-e]azepin-2-yl)amino)-2-methoxybenzamide trifluoroacetic acid] | > 70
COc1cc(Nc2ncc3c(n2)-c2ccc(Cl)cc2C(c2c(F)cccc2OC)=NC3)ccc1C(=O)NCCCCCC(=O)Nc1cccc(C#CCN)c1 [5-104″, N-(6-((3-(3-aminoprop-1-yn-1-yl)phenyl)amino)-6-oxohexyl)-4-((9-chloro-7-(2-fluoro-6-methoxyphenyl)-5H-benzo[c]pyrimido[4,5-e]azepin-2-yl)amino)-2-methoxybenzamide trifluoroacetic acid] | > 70
COC(=O)c1ccc(C#CCNC(=O)c2ccc(Nc3ncc4c(n3)-c3ccc(Cl)cc3C(c3c(F)cccc3OC)=NC4)cc2OC)cc1C#CCN [5-116″, methyl 2-(3-aminoprop-1-yn-1-yl)-4-(3-(4-((9-chloro-7-(2-fluoro-6-methoxyphenyl)-5H-benzo[c]pyrimido[4,5-e]azepin-2-yl)amino)-2-methoxybenzamido)prop-1-yn-1-yl)benzoate trifluoroacetic acid] | > 70
COC(=O)c1ccc(N(C)C(=O)CCCNC(=O)c2ccc(Nc3ncc4c(n3)-c3ccc(Cl)cc3C(c3c(F)cccc3OC)=NC4)cc2OC)cc1C#CCN [5-150″, methyl 2-(3-aminoprop-1-yn-1-yl)-4-(4-(4-((9-chloro-7-(2-fluoro-6-methoxyphenyl)-5H-benzo[c]pyrimido[4,5-e]azepin-2-yl)amino)-2-methoxybenzamido)-N-methylbutanamido)benzoate trifluoroacetic acid] | < 40

Same assay, conditions: MM1.S; MM.1S cells, 5 μM, 24 hours, Western blot; read-out: Aurora A degrading capacity (%)

Aurora A degradation (%) at 5 µM [%] | SMILES
> 70 | COC(=O)c1ccc(C(=O)NCCCNC(=O)c2ccc(Nc3ncc4c(n3)-c3ccc(Cl)cc3C(c3c(F)cccc3OC)=NC4)cc2OC)cc1C#CCN [5-18″, methyl 2-(3-aminoprop-1-yn-1-yl)-4-((3-(4-((9-chloro-7-(2-fluoro-6-methoxyphenyl)-5H-benzo[c]pyrimido[4,5-e]azepin-2-yl)amino)-2-methoxybenzamido)propyl)carbamoyl)benzoate hydrochloride]
< 40 | COC(=O)c1ccc(NC(=O)C2CCN(C(=O)c3ccc(Nc4ncc5c(n4)-c4ccc(Cl)cc4C(c4c(F)cccc4OC)=NC5)cc3OC)CC2)cc1C#CCN [5-23″, methyl 2-(3-aminoprop-1-yn-1-yl)-4-(1-(4-((9-chloro-7-(2-fluoro-6-methoxyphenyl)-5H-benzo[c]pyrimido[4,5-e]azepin-2-yl)amino)-2-methoxybenzoyl)piperidine-4-carboxamido)benzoate hydrochloride]

Same assay, conditions: MM.1S cells, 5 μM, 24 hours, Western blot; control group

Aurora A degrading capacity [%] | SMILES
0 | COc1cc(Nc2ncc3c(n2)-c2ccc(Cl)cc2C(c2c(F)cccc2OC)=NC3)ccc1C(=O)O [Formula 2, reference compound]
